“Also recorded” adds a separate entry of the source.
Tests used:
Type in all cases: cell-based
[1] = test system: RCC4, RCC4/VHL, SN12C and SN12C-VHL shRNA cells; assay: Vacuole formation by light and time-lapse microscopy
Description: A. Phase contrast pictures of VHL-deficient RCC4 and SN12C-VHL shRNA cells and VHL-positive cells RCC4 and SN12C after 20 hrs of 1.25 μM STF-62247. B. Immunostaining for LC3 following STF-62247 treatment at 1.25 μM for 20 hrs with or without 2 mM of 3-MA in RCC4 with and without VHL cells. After treatment, cells were fixed, permeabilized and processed for the detection of punctuate staining by indirect immunofluorescence. C. Autophagic vacuoles stained with monodansylcadaverine (MDC). After STF-62247 treatment in the same conditions, MDC was added for the last 10 minutes. Cells were fixed, washed with PBS and observed directly under microscope. D. Western blot for LC3 in RCC4, RCC4/VHL, SN12C, and SN12C-VHL shRNA cells after STF-62247 treatment with or without 3-MA. Nutrient starvation (EBSS) is used as positive control. […] Viability is measured by trypan blue exclusion assay and is represented by the average of three different experiments in duplicate as the percent of treated on untreated cells. […]
A. RCC4 and RCC4/VHL were treated with 1.25 μM of each 19 analogs for 20 hours and the presence of vacuoles was examined under light microscopy. […] Acidic vesicle organelles (AVO) measured by FACS analysis in cells treated with 1.25 μM of STF-62247 or with compounds 21, 15, 25, 47, and 53 and stained with acridine orange.

LC3 = LC3 processing by Western blot and immunostaining; conditions: STF-62247 treatment, FIG. 2D, 2E
Description: Western blot analysis. After treatments, cells were lysed in urea buffer (9M urea, 75 mM Tris (pH 7.5), 150 mM b-mercaptoethanol), placed on ice for 10 minutes and sonicated briefly (15 seconds). Extracts were centrifugated at 8,000×g for 10 minutes to eliminate insoluble material. Lysates were quantitated using Bio-Rad protein Assay (Bio-Rad Laboratories) and 20-30 μg of proteins were separated on a 7.5% or 15% bis-acrylamide gels and then transferred onto PVDF membranes. Proteins were visualized using HIF-2α (Novus Biological), HIF-1α, pVHL and BiP (BD Biosciences), LC3 (MBL), Atg5, or α-tubulin antibodies.
Immunofluorescence staining. Cells were seeded on glass coverslips and at subconfluence, STF-62247 was added at 1.25 μM for RCC4 and 3.75 μM for SN12C. After 20 hours, cells were fixed in 3.7% formaldehyde for 10 min at room temperature and washed in PBS. Then cells were permeabilized in 0.2% Triton X-100 for 5 min at room temperature and washed in PBS. The coverslips were incubated with primary antibody LC3 diluted 1:500 in PBS containing 0.2% BSA for 1 hour at room temperature. Cells were washed three times in PBS-BSA and the bound primary antibody was detected using a fluorescein-conjugated secondary antibody (ALEXA) diluted 1:500 in PBS-BSA and incubated for 1 hour. Coverslips were washed and mounted in mounting medium from Vector Laboratories according to the manufacturer's instructions. Cells were examined with a confocal microscope
A. Phase contrast pictures of VHL-deficient RCC4 and SN12C-VHL shRNA cells and VHL-positive cells RCC4 and SN12C after 20 hrs of 1.25 μM STF-62247. B. Immunostaining for LC3 following STF-62247 treatment at 1.25 μM for 20 hrs with or without 2 mM of 3-MA in RCC4 with and without VHL cells. After treatment, cells were fixed, permeabilized and processed for the detection of punctuate staining by indirect immunofluorescence. C. Autophagic vacuoles stained with monodansylcadaverine (MDC). After STF-62247 treatment in the same conditions, MDC was added for the last 10 minutes. Cells were fixed, washed with PBS and observed directly under microscope. D. Western blot for LC3 in RCC4, RCC4/VHL, SN12C, and SN12C-VHL shRNA cells after STF-62247 treatment with or without 3-MA. Nutrient starvation (EBSS) is used as positive control. E. Western blot for LC3 in RCC4 and RCC4/VHL with different concentrations of STF-62247. Tubulin was used as loading control. F. Cell viability assay in VHL-deficient RCC4 and wild-type VHL cells treated with 1 mM of 3-MA, 1.25 μM of STF-62247 alone or in combination for 24 hrs. Viability is measured by trypan blue exclusion assay and is represented by the average of three different experiments in duplicate as the percent of treated on untreated cells. The error bars are represented as SEM.
A. VHL-deficient RCC4 and wild-type VHL were incubated in presence of 10 μM LY294002, or 1 μg/mlBrefeldin A with 1.25 μM of STF-62247 for 20 hrs and the presence of vacuoles was examined under light microscopy. B,C. LC3 processing was evaluated by Western blot after the treatment with Brefeldin A or LY294002 in presence or absence of STF-62247 as described above. Tubulin was used as loading control. D. Cells were treated with 1.25 μM of STF-62247 with or without 2 mM of 3-MA, 1 μg/ml of Brefeldin A for 20 hrs. For the last 15 min, acidic components were stained with 1 μg/ml of acridine orange and visualized under fluorescence microscope. […] F. Quantification of the FACS analysis. The data are calculated as the average of three different experiments as relative units of treated over untreated cells. The error bars are represented as the standard error of the mean (SEM).
B,C. LC3 processing was evaluated by Western blot after the treatment with U0126 or tunicamycin in presence or absence of STF-62247 as described above. Tubulin was used as loading control.

[2] = test system: RCC4, RCC4/VHL, SN12C and SN12C-VHL shRNA cells; assay: Clonogenic cell survival assay
Description: Clonogenic Cell Survival Assay. RCC4, RCC4/VHL, SN12C and SN12C-VHL shRNA were plated at 300 cells per 60 mm tissue culture dish. The following day, vehicle or STF-62247 was added and cells were incubated in the presence of drug for 10 days in RCC4 and RCC4/VHL and 7-10 days for SN12C and SN12C-VHL shRNA. The colonies were stained with crystal violet, and quantified. Each experiment was performed at least three times in triplicate.
A. RCC4 and RCC4/VHL cells were labeled with EYFP and the effect of STF-62247 was monitored by fluorescence in each cell type separately. Cells are pseudocolored. B. Clonogenic assay in RCC4, RCC4/VHL, SN12C, SN12C-VHL shRNA cells in the presence of STF-62247 (0-30 μM). Each point of the cell survival is calculated by the average of three different experiments in triplicate as the percent of treated on untreated plate. The error bars represented the standard error of the mean (SEM). C. Upper Panel, clonogenic assay in RCC4 infected with HIF-1α or HIF-2α shRNA by retroviral infection in presence of drug in same conditions described above. Bottom panel, HIF-1α or HIF-2α protein expression evaluated by western blot in RCC4 cells with HIF-1α or HIF-2α shRNA. Tubulin is used as loading control. […] Tumor volume was measured every 2-3 days and data are represented in fold. Five tumors in each condition were analyzed where * p<0.05, **p<0.01 and ***p<0.005.

## Cc1cccc(Nc2nc(-c3ccncc3)cs2)c1 [Compound 5, N-(3-Methylphenyl)-4-(4-pyridinyl)-1,3-thiazol-2-amine]
[1]; 1.25 μM, 20 hrs, FIG. 2A
  vacuole formation: accumulated intracytoplasmic vacuoles characteristic of cells undergoing autophagy
[1]; time-lapse for 48 hours, RCC cells with and without VHL
  time of appearance of vacuoles after addition: 3 h
LC3
  LC3-II (lipidated form): induced by STF-62247 treatment; also recorded: increases in a concentration-dependent manner
[2]; RCC4 with HIF-1α or HIF-2α shRNA, RCC4/VHL with stable HIF-2α
  dependence of cytotoxicity on HIF: induces cytotoxicity in VHL-null cells in a HIF-independent manner
[2]; VHL-deficient versus VHL wild-type cells, 0-30 μM, FIG. 1B
  selective toxicity in clonogenic assays: selectively toxic to VHL-deficient cells compared to their VHL wild-type counterparts
